Patent US20070141129A1, “Wound care product comprising a substance which inhibits the growth of bacteria in wounds” (priority 2003, published 2007)
Entries after “also recorded” stand apart in the source; their conditions may differ.

Tests used:
S. aureus [1] = assay: growth of S. aureus in BHI broth with added xylitol (transmittance); format: cell-based, Staphylococcus aureus
Experimental: (§1) The bacterial strains were stored at −70° C. Immediately prior to each experiment, these strains were taken out and placed on a blood plate and incubated overnight at 35° C. The same incubator was used in all the experiments. After that, a loop of the colonies which had grown was incubated in brain heart infusion (BHI) broth for 18 hours. 100 μl of this broth were inoculated into 3-5 ml of fresh BHI broth with or without the addition of xylitol. Different contents of xylitol were added. As is evident from FIGS. 1-5, the contents of xylitol were 1%, 2.5%, 5% and 10%.
(§2) The transmittance or translucency was measured from hour 0, and after that every hour, for 6 hours on a Biolog turbidimeter from the company Biolog Inc., Hayward, Calif., USA. The growth of bacteria reduces the translucency, i.e. the lower the transmittance the greater the growth of the bacteria.
(§3) At 0 hours and at 6 hours, 100 μl of the broth were cultured and the number of live bacteria was counted. The transmittance value and the quantity of bacteria (colony forming units/ml) in tubes with and without xylitol were then compared.

[2] = tested on: S. aureus (multiresistant), MRSA strain; assay: growth of multiresistant S. aureus (MRSA strain) in BHI broth with added xylitol (transmittance); format: cell-based, Staphylococcus aureus
Experimental: as §1, §2, §3

group B streptococci = assay: growth of group B streptococci in BHI broth with added xylitol; format: cell-based; conditions: xylitol added to BHI, 1-10% (FIG. 3)
Experimental: as §1, §2, §3

group G streptococci = assay: growth of group G streptococci in BHI broth with added xylitol; format: cell-based; conditions: xylitol added to BHI, 1-10% (FIG. 4)
Experimental: as §1, §2, §3

P. aeruginosa = assay: growth of P. aeruginosa in BHI broth with added xylitol; format: cell-based, Pseudomonas aeruginosa; conditions: xylitol added to BHI, 1-10% (FIG. 5)
Experimental: as §1, §2, §3

[3] = tested on: S. aureus (including MRSA), group A, B, C and G streptococci, enterococci (including VRE) and Pseudomonas aeruginosa; assay: growth of wound infection bacteria in nutrient-rich medium with added xylitol; format: cell-based; conditions: xylitol (1-10%) in nutrient-rich medium
Experimental: as §1, §2, §3

VRE = assay: growth of VRE with xylitol; format: cell-based, vancocin-resistant enterococci
Experimental: as §1, §2, §3

[4] = tested on: beta-haemolytic streptococci, including group B streptococci; assay: growth of beta-haemolytic streptococci with xylitol; format: cell-based
Experimental: as §1, §2, §3

bacteria = conditions: bacteriological tests; cited from earlier work
[5] = toxicity assessed as so low; cited from earlier work
alpha-streptococci = conditions: oral flora; uptake via fructose phosphotransferase system; cited from earlier work
S. aureus [6] = conditions: cited from earlier work
[7] = tested on: intestinal bacteria which cause diarrhoea, bacteria which give rise to ear inflammations, yeast fungus; conditions: cited from earlier work
[8] = children, clinical study; cited from earlier work
[9] = tested on: epithelial cells in the skin; conditions: cited from earlier work

## OC[C@@H](O)[C@H](O)[C@@H](O)CO [xylitol]
S. aureus [1]; BHI containing 10% added xylitol, 2 hours (FIG. 1)
  bacterial growth after 2 hours: hardly any bacterial growth at all
S. aureus [1]; BHI nutrient solution, 10% xylitol added, 6 hours, without xylitol 20 (FIG. 1)
  translucency (transmittance) after 6 hours: more than 60%
[2]; 10% added xylitol, 6 hours, without xylitol approx. 30% (FIG. 2)
  translucency after 6 hours: more than 70%
[2]; xylitol added to nutrient solution, 1-10%
  inhibition of growth of the bacteria: effective in combating the growth; also recorded: inhibited very effectively
Group B streptococci
  inhibition of growth of the bacteria: effectively inhibited
Group G streptococci
  inhibition of growth of the bacteria: very effective in inhibiting the growth
P. aeruginosa
  inhibition of growth of the bacteria: effective in combating the growth; also recorded: very effective in inhibiting the growth
[3]
  reduction of growth, factor: ≤ 1000
VRE
  inhibition of growth of the bacteria: effective in combating the growth
[4]
  effect against the bacteria: also effective
bacteria
  mutagenic properties (increase in natural mutation frequency): No mutagenic properties
[5]
  limit value for an acceptable daily intake: no limit value
alpha-streptococci
  growth of alpha-streptococci: inhibited
S. aureus [6]
  production of glycocalyx: decrease
[7]
  adherence of bacteria: decreases the adherence
[8]
  reduction of the number of ear inflammations: up to 40%
[9]
  absorption by epithelial cells in the skin: only absorbed to a very slight extent
